A word on the pIC50: it is the negative decadic logarithm of the IC50, by convention in mol/L.

pIC50: −log10 of the molar value.

Chain of human-KAT6A (MYST domain 507-778 aa) (Q92794 507-778): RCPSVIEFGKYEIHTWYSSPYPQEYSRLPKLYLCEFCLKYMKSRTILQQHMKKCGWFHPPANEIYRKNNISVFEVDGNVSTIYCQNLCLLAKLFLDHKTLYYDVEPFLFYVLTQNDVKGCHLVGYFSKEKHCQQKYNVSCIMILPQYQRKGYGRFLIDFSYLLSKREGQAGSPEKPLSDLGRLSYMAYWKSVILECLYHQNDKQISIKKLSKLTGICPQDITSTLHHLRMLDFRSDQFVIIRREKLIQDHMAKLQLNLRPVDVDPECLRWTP

The target of the first assay is human-KAT6A (MYST domain 507-778 aa) (Homo sapiens (Human), UniProt Q92794). Kind of assay: KAT6A biochemical assay (TR-FRET). The conditions noted are these: @ 1 μM; reported where IC50 could not be determined; read-out: Percent inhibition at specific concentration (KAT6A). A digest of the protocol:
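KAT6A MYST domain preincubated with compound 30 min at 25° C, then reacted 60 min at 25° C with 200 nM biotin-H4 peptide and 600 nM acetyl-CoA (final). Europium anti-acetyl-lysine/streptavidin-APC TR-FRET read (Ex 340, Em 615/665 nm); % inhibition from 665/615 ratio, IC50 by sigmoidal fit.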
On the technique in general: In TR-FRET formats the signal depends on donor and acceptor labels being close together.
Regarding `COc1ccc(C(C)(C)C)cc1S(=O)(=O)NC(=O)c1ccc(Cn2cccn2)n(C)c1=O` [Compound 267, 6-((1H-Pyrazol-1-yl)methyl)-N-((5-(tert-butyl)-2-methoxyphenyl)sulfonyl)-1-methyl-2-oxo-1,2-dihydropyridine-3-carboxamide], the inhibition at 1 µM was determined as 45%.

Regarding `COc1ccc(C(C)(C)C)cc1S(=O)(=O)NC(=O)c1ccc(Cn2cccn2)c(=O)n1C` [Compound 278, 5-((1H-pyrazol-1-yl)methyl)-N-((5-(tert-butyl)-2-methoxyphenyl)sulfonyl)-1-methyl-6-oxo-1,6-dihydropyridine-2-carboxamide], the inhibition at 1 µM stood at 25%.

In the case of `CN=S(=O)(NC(=O)c1ccc(Cn2cccn2)c(OC)c1)c1c(OC)cccc1OC` (centres unmarked) [Compound 292, 4-((1H-pyrazol-1-yl)methyl)-N-((2,6-dimethoxyphenyl)(methylamino)(oxo)-16-sulfaneylidene)-3-methoxybenzamide], the inhibition at 1 µM was 47%.

Staying with this assay, now noted: TR-FRET; histone H4 peptide 200 nM, acetyl-CoA 600 nM; read-out: KAT6A IC50.
As to `COc1cccc(OC2CCC2)c1S(=N)(=O)NC(=O)c1ccc(Cn2cccn2)c(OC)n1` (centres unmarked) [Compound 261, 5-((1H-pyrazol-1-yl)methyl)-N-(2-cyclobutoxy-6-methoxyphenylsulfonimidoyl)-6-methoxypicolinamide], the pIC50 was 7.42.

In the case of `COc1ccc(S(=N)(=O)NC(=O)c2ccc(Cn3cccn3)c(OC)n2)c(OC)c1` (centres unmarked) [Compound 262, 5-((1H-pyrazol-1-yl)methyl)-N-(2,4-dimethoxyphenylsulfonimidoyl)-6-methoxypicolinamide], the pIC50 was 6.94.

Regarding `COc1cc(OC)c(S(=N)(=O)NC(=O)c2ccc(Cn3cccn3)c(OC)n2)c(OC)c1` (centres unmarked) [Compound 263, 5-((1H-pyrazol-1-yl)methyl)-6-methoxy-N-(2,4,6-trimethoxyphenylsulfonimidoyl)picolinamide], the pIC50 is 7.44.

`CCc1nc(C(=O)NS(=O)(=O)c2c(OC)cccc2OC)ccc1Cn1cccn1` [Compound 265, 5-((1H-Pyrazol-1-yl)methyl)-N-((2,6-dimethoxyphenyl)sulfonyl)-6-ethylpicolinamide]: the pIC50 was 7.85.

`COc1ccc(C(C)(C)CO)cc1S(=O)(=O)NC(=O)c1ccc(Cn2cccn2)c(OC)n1` [Compound 266, 5-((1H-Pyrazol-1-yl)methyl)-N-((5-(1-hydroxy-2-methylpropan-2-yl)-2-methoxyphenyl)sulfonyl)-6-methoxypicolinamide]: the pIC50 was 8.00.

For the compound `CCc1c(OC)cc(OC)c(S(=O)(=O)NC(=O)c2ccc(Cn3cccn3)c(OC)n2)c1OC` [Compound 268, 5-((1H-Pyrazol-1-yl)methyl)-N-((3-ethyl-2,4,6-trimethoxyphenyl)sulfonyl)-6-methoxypicolinamide], the pIC50 is 7.80.

In the case of `COc1cc(C#Cc2cccnc2)cc(OC)c1S(=O)(=O)NC(=O)c1ccc(Cn2cccn2)c(OC)n1` [Compound 269, 5-((1H-Pyrazol-1-yl)methyl)-N-((2,6-dimethoxy-4-(pyridin-3-ylethynyl)phenyl)sulfonyl)-6-methoxypicolinamide], the pIC50 was 7.92.

For the compound `[2H]C([2H])([2H])Oc1cc(OC([2H])([2H])[2H])c(S(=O)(=O)NC(=O)c2ccc(Cn3cccn3)c(OC)n2)c(OC([2H])([2H])[2H])c1` [Compound 270, 5-((1H-pyrazol-1-yl)methyl)-6-methoxy-N-((2,4,6-tris(methoxy-d3)phenyl)sulfonyl)picolinamide], the pIC50 is 8.22.

With `CCc1ccc(OC)c(S(=O)(=O)NC(=O)c2ncc(Cn3cccn3)c(OC)n2)c1` [Compound 271, 5-((1H-Pyrazol-1-yl)methyl)-N-((5-ethyl-2-methoxyphenyl)sulfonyl)-4-methoxypyrimidine-2-carboxamide], the pIC50 was 7.43.

For the compound `COc1cc(OC)c(S(=O)(=O)NC(=O)c2ncc(Cn3cccn3)c(OC)n2)c(OC)c1` [Compound 272, 5-((1H-pyrazol-1-yl)methyl)-4-methoxy-N-((2,4,6-trimethoxyphenyl)sulfonyl)pyrimidine-2-carboxamide], the pIC50 was 7.48.

Consider `COc1ccc(C2CC2)cc1S(=O)(=O)NC(=O)c1ncc(Cn2cccn2)c(OC)n1` [Compound 273, 5-((1H-pyrazol-1-yl)methyl)-N-((5-cyclopropyl-2-methoxyphenyl)sulfonyl)-4-methoxypyrimidine-2-carboxamide], for which the pIC50 was 7.47.

Turning to `COc1cccc(OC)c1S(=O)(=O)NC(=O)c1ncc(Cn2cccn2)c(OC)n1` [Compound 274, 5-((1H-pyrazol-1-yl)methyl)-N-((2,6-dimethoxyphenyl)sulfonyl)-4-methoxypyrimidine-2-carboxamide], the pIC50 is 7.52.

As to `COc1cc(C)cc(OC)c1S(=O)(=O)NC(=O)c1ccc(Cn2cccn2)c(OC)n1` [Compound 275, 5-((1H-pyrazol-1-yl)methyl)-N-((2,6-dimethoxy-4-methylphenyl)sulfonyl)-6-methoxypicolinamide], the pIC50 is 8.00.

Consider `COc1cccc(OC2CC2)c1S(=O)(=O)NC(=O)c1ccc(Cn2cccn2)c(OC)n1` [Compound 279, 5-((1H-pyrazol-1-yl)methyl)-N-((2-cyclopropoxy-6-methoxyphenyl)sulfonyl)-6-methoxypicolinamide], for which the pIC50 was 7.85.

Turning to `COc1nc(C(=O)NS(=O)(=O)c2cc(C(C)(C)C)cc3c2OCC3)ccc1Cn1cccn1` [Compound 280, 5-((1H-pyrazol-1-yl)methyl)-N-((5-(tert-butyl)-2,3-dihydrobenzofuran-7-yl)sulfonyl)-6-methoxypicolinamide], the pIC50 was 8.30.

As for `COc1ccc2c(c1S(=O)(=O)NC(=O)c1ccc(Cn3cccn3)c(OC)n1)OCO2` [Compound 281, 5-((1H-pyrazol-1-yl)methyl)-6-methoxy-N-((5-methoxybenzo[d][1,3]dioxol-4-yl)sulfonyl)picolinamide], the pIC50 was 8.00.

Turning to `COc1cc(F)cc(OC)c1S(=O)(=O)NC(=O)c1ccc(Cn2cccn2)c(OC)n1` [Compound 282, 5-((1H-pyrazol-1-yl)methyl)-N-((4-fluoro-2,6-dimethoxyphenyl)sulfonyl)-6-methoxypicolinamide], the pIC50 was 7.85.

Take `COc1cc(Cl)cc(OC)c1S(=O)(=O)NC(=O)c1ccc(Cn2cccn2)c(OC)n1` [Compound 283, 5-((1H-pyrazol-1-yl)methyl)-N-((4-chloro-2,6-dimethoxyphenyl)sulfonyl)-6-methoxypicolinamide]: the pIC50 is 8.00.

As for `CCOc1ccc(CC)c(OC)c1S(=O)(=O)NC(=O)c1ccc(Cn2cccn2)c(OC)n1` [Compound 284, 5-((1H-pyrazol-1-yl)methyl)-N-((6-ethoxy-3-ethyl-2-methoxyphenyl)sulfonyl)-6-methoxypicolinamide], the pIC50 is 8.00.

Turning to `COc1cc(Br)cc(OC)c1S(=O)(=O)NC(=O)c1ccc(Cn2cccn2)c(OC)n1` [Compound 285, 5-((1H-pyrazol-1-yl)methyl)-N-((4-bromo-2,6-dimethoxyphenyl)sulfonyl)-6-methoxypicolinamide], the pIC50 was 8.22.

For `COc1cc(C)c(S(=O)(=O)NC(=O)c2ccc(Cn3cccn3)c(OC)n2)c(OC)c1` [Compound 286, 5-((1H-pyrazol-1-yl)methyl)-N-((2,4-dimethoxy-6-methylphenyl)sulfonyl)-6-methoxypicolinamide], the pIC50 is 7.96.

`COc1nc(C(=O)NS(=O)(=O)c2cc(C(F)(F)F)cc3c2OCC3)ccc1Cn1cccn1` [Compound 287, 5-((1H-pyrazol-1-yl)methyl)-6-methoxy-N-((5-(trifluoromethyl)-2,3-dihydrobenzofuran-7-yl)sulfonyl)picolinamide]: the pIC50 is 7.96.

As to `COc1cc(F)c(S(=O)(=O)NC(=O)c2ccc(Cn3cccn3)c(OC)n2)c(OC)c1` [Compound 288, 5-((1H-pyrazol-1-yl)methyl)-N-((2-fluoro-4,6-dimethoxyphenyl)sulfonyl)-6-methoxypicolinamide], the pIC50 was 8.10.

With `CCOc1nc(C(=O)NS(=O)(=O)c2c(OC)cccc2OC)ccc1Cn1cccn1` [Compound 289, 5-((1H-pyrazol-1-yl)methyl)-N-((2,6-dimethoxyphenyl)sulfonyl)-6-ethoxypicolinamide], the pIC50 is 7.72.

With `COc1ccc(C(C)(C)CO)cc1[S@](=N)(=O)NC(=O)c1ccc(Cn2cccn2)c(OC)n1` [Compound 290a, (R)-5-((1H-pyrazol-1-yl)methyl)-N-(5-(1-hydroxy-2-methylpropan-2-yl)-2-methoxyphenylsulfonimidoyl)-6-methoxypicolinamide], the pIC50 is 7.85.

In the case of `COc1ccc(C(C)(C)CO)cc1[S@@](=N)(=O)NC(=O)c1ccc(Cn2cccn2)c(OC)n1` [Compound 290b, (S)-5-((1H-pyrazol-1-yl)methyl)-N-(5-(1-hydroxy-2-methylpropan-2-yl)-2-methoxyphenylsulfonimidoyl)-6-methoxypicolinamide], the pIC50 is 7.48.

`COc1cc(C(=O)N[S@@](=N)(=O)c2cc(C(C)(C)CO)ccc2OC)ccc1Cn1cccn1` [Compound 291a, (R)-4-((1H-pyrazol-1-yl)methyl)-N-(5-(1-hydroxy-2-methylpropan-2-yl)-2-methoxyphenylsulfonimidoyl)-3-methoxybenzamide]: the pIC50 was 7.03.

Regarding `COc1cc(C(=O)N[S@](=N)(=O)c2cc(C(C)(C)CO)ccc2OC)ccc1Cn1cccn1` [Compound 291b, (S)-4-((1H-pyrazol-1-yl)methyl)-N-(5-(1-hydroxy-2-methylpropan-2-yl)-2-methoxyphenylsulfonimidoyl)-3-methoxybenzamide], the pIC50 is 8.05.

For `COc1ccc(Cl)c(OC)c1[S@](=N)(=O)NC(=O)c1ccc(Cn2cccn2)c(OC)n1` [Compound 293a, (R)-5-((1H-pyrazol-1-yl)methyl)-N-(3-chloro-2,6-dimethoxyphenylsulfonimidoyl)-6-methoxypicolinamide], the pIC50 was 6.43.

Source of the values: patent US20250136553A1, “ACYLSULFONAMIDE KAT6A INHIBITORS” (Olema Pharmaceuticals, Inc., priority 2023, published 2025).
